Earlier results on two compounds are cited in PMC3815949 (Microbial biotechnology, 2009).

This data set concerns DmpA. The data set is classed as biochemical, Brucella anthropi.

For `NCCC(N)=O` [H-β-Ala-NH2], the Km (as a rule, the concentration of substrate that gives half-maximal velocity) is ~1.5 mM.
For the compound `N[C@@H](Cc1cnc[nH]1)C(=O)O` [L-histidine], the Km is ~51 mM.
